# Measurements published in patent US4364958A, “1-Substituted-3-cycloalkyl-sulfonyl-pyrrolidine-2,5-dione derivatives and fungicidal compositions thereof” (Chinoin Gyogyszer es Vegyeszeti Termekek Gyara Rt., priority 1979, dated 1982).
# Where two headings read alike, the source gives them in different places.
# Tests used:
# [1] = tested on: Aspergillus niger CBS.12648; experiment: minimal inhibitory concentration in Sabouraud medium; type: cell-based; settings: Aspergillus niger
# Excerpt: Aspergillus niger CBS.12648
# (§1) As a medium Saboroud medium was employed.
# Cercospora beticola = experiment: activity against phytopathogenic fungi; type: cell-based
# Candida krusei 79/K47 = experiment: minimal inhibitory concentration in Sabouraud medium; settings: Pichia kudriavzevii, read-out: minimal inhibitory concentration
# [2] = tested on: Penicillium chrysogenium CCM.F-362; experiment: as above; type: cell-based; settings: for MIC: Penicillium
# Excerpt: Penicillium chrysogenium CCM.F-362
# as §1
# Botrytis cinerea = experiment: activity against phytopathogenic fungi; type: cell-based
# [3] = tested on: Microsporum gypseum ver. vinosum CBS.10064; experiment: minimal inhibitory concentration in Sabouraud medium; type: cell-based; settings: Nannizzia gypsea, 72 h
# Excerpt: Microsporum gypseum ver. vinosum CBS.10064
# as §1
# [4] = tested on: Saccharomyces cerevisiae OKI.1282; experiment: as above; type: cell-based; settings: for MIC: Saccharomyces cerevisiae
# Excerpt: Saccharomyces cerevisiae OKI.1282
# as §1
# [5] = tested on: Candida tropicalis CBS.433; experiment: as above; type: cell-based; settings: for MIC: Candida tropicalis
# Excerpt: Candida tropicalis CBS.433 "3"
# as §1
# [6] = tested on: Penicillium digitatum CBS.31948; experiment: as above; type: cell-based; settings: for MIC: Penicillium digitatum
# Excerpt: Penicillium digitatum CBS.31948
# as §1
# [7] = tested on: Epidermophyton floccosum OKI/IV.; experiment: as above; type: cell-based; settings: for MIC: Epidermophyton floccosum
# Excerpt: Epidermophyton floccosum OKI/IV.
# as §1
# Candida albicans CBS.562 = experiment: as above; type: cell-based; settings: for MIC: Candida albicans
# Excerpt: Candida albicans CBS.562 "2"
# as §1
# Phytophtora infestans = type: cell-based
# [8] = tested on: Penicillium chrysogenium CBS.19646; experiment: minimal inhibitory concentration in Sabouraud medium; type: cell-based; settings: for MIC: Penicillium
# Excerpt: Penicillium chrysogenium CBS.19646
# as §1
# Sclerotinia sclerotiorum = experiment: activity against phytopathogenic fungi; type: cell-based
# [9] = tested on: Fusarium culmorum DSM.11425; experiment: minimal inhibitory concentration in Sabouraud medium; type: cell-based
# Excerpt: Fusarium culmorum DSM.11425
# as §1
# [10] = tested on: Fusarium monoliforme DSM.11778; experiment: as above; type: cell-based; settings: for MIC: Fusarium
# Excerpt: Fusarium monoliforme DSM.11778
# as §1
# [11] = tested on: Penicillium digitatum CCM.F-382; experiment: as above; type: cell-based; settings: for MIC: Penicillium digitatum
# Excerpt: Penicillium digitatum CCM.F-382
# as §1
# [12] = tested on: Cryptococcus neoform. 78/K16; experiment: as above; settings: read-out: minimal inhibitory concentration
# [13] = tested on: Aspergillus flavus CBS.24765; experiment: as above; type: cell-based; settings: for MIC: Aspergillus flavus
# Excerpt: Aspergillus flavus CBS.24765
# as §1
# [14] = tested on: Trichophyton mentagrophytes CBS.50148; experiment: as above; type: cell-based; settings: for MIC: Trichophyton mentagrophytes
# Excerpt: Trichophyton mentagrophytes CBS.50148
# as §1
# [15] = tested on: Fusarium oxysporum DSM.10975; experiment: as above; type: cell-based
# Excerpt: Fusarium oxysporum DSM.10975
# as §1
# [16] = tested on: Aspergillus fumigatus CBS.11326; experiment: as above; type: cell-based; settings: for MIC: Aspergillus fumigatus
# Excerpt: Aspergillus fumigatus CBS.11326
# as §1
# Venturia = experiment: activity against phytopathogenic fungi; type: cell-based
# [17] = tested on: Fusarium graminocorum DSM.11802; experiment: minimal inhibitory concentration in Sabouraud medium; type: cell-based
# Excerpt: Fusarium graminocorum DSM.11802
# as §1
# Taphrina deformans = experiment: activity against phytopathogenic fungi; type: cell-based
# Verticillium albo-atrum = experiment: activity against phytopathogenic fungi; type: cell-based
# [18] = tested on: Sporotrichum schenkii CBS.34035; experiment: minimal inhibitory concentration in Sabouraud medium; type: cell-based; settings: 288 hours
# Excerpt: Sporotrichum schenkii CBS.34035
# as §1
# [19] = tested on: Trichophyton rubrum CBS.30338; experiment: as above; type: cell-based; settings: Trichophyton rubrum
# Excerpt: Trichophyton rubrum CBS.30338
# as §1
# Verticillium dahlise = experiment: activity against phytopathogenic fungi; type: cell-based
# [20] = tested on: Aspergillus niger CCM.F-330; experiment: minimal inhibitory concentration in Sabouraud medium; type: cell-based; settings: for MIC: Aspergillus niger
# Excerpt: Aspergillus niger CCM.F-330
# as §1
# Ascochyta pisi = experiment: activity against phytopathogenic fungi; type: cell-based
compound,measurement,setting,value
"O=C1CC(S(=O)(=O)C2CCCCC2)C(=O)N1c1ccccc1 (stereo not shown) [1-Phenyl-3-cyclohexyl-sulfonyl-pyrrolidine-2,5-dione]",MIC,"[1]; CBS.12648, 72 h, 72 hours",75 µg/mL
same,MIC,"[1]; CBS.12648, 144 h, 144 hours",150 µg/mL
same,MIC,"[1]; CBS.12648, 288 h, 288 hours",150 µg/mL
same,activity against Cercospora beticola,Cercospora beticola,active
same,MIC,"Candida krusei 79/K47; 79/K47, 24 h",10 µg/mL
same,MIC,"Candida krusei 79/K47; 79/K47, 48 h",10 µg/mL
same,minimal inhibitory concentration,[2]; 144 hours,150 µg/mL
same,MIC,"[2]; CCM.F362, 72 h, 72 hours",75 µg/mL
same,MIC,"[2]; CCM.F362, 144 h, 144 hours",200 µg/mL
same,MIC,"[2]; CCM.F362, 288 h, 288 hours",200 µg/mL
same,activity against Botrytis cinerea,Botrytis cinerea,active
same,MIC,[3],10 µg/mL
same,minimal inhibitory concentration,[4]; 24 hours,75 µg/mL
same,minimal inhibitory concentration,[4]; 48 hours,75 µg/mL
same,MIC,"[4]; OKI.1282, 24 h, 24 hours",50 µg/mL
same,MIC,"[4]; OKI.1282, 48 h, 48 hours",50 µg/mL
same,minimal inhibitory concentration,[5]; 24 hours,75 µg/mL
same,minimal inhibitory concentration,[5]; 48 hours,75 µg/mL
same,MIC,"[5]; CBS.433, 24 h, 24 hours",150 µg/mL
same,MIC,"[5]; CBS.433, 48 h, 48 hours",150 µg/mL
same,minimal inhibitory concentration,[6]; 288 hours,50 µg/mL
same,MIC,"[6]; CBS.31948, 72 h, 72 hours",10 µg/mL
same,MIC,"[6]; CBS.31948, 144 h, 144 hours",25 µg/mL
same,MIC,"[6]; CBS.31948, 288 h, 288 hours",25 µg/mL
same,minimal inhibitory concentration,[7]; 144 hours,2.5 µg/mL
same,minimal inhibitory concentration,[7]; 288 hours,10 µg/mL
same,MIC,"[7]; 144 h, read-out: minimal inhibitory concentration",5 µg/mL
same,MIC,"[7]; 288 h, read-out: minimal inhibitory concentration",5 µg/mL
same,MIC,[7]; read-out: Minimal inhibitory concentration inhibiting the growth,1 µg/mL
same,minimal inhibitory concentration,Candida albicans CBS.562; 24 hours,50 µg/mL
same,minimal inhibitory concentration,Candida albicans CBS.562; 48 hours,50 µg/mL
same,MIC,"Candida albicans CBS.562; CBS.562, 24 h, 24 hours",75 µg/mL
same,MIC,"Candida albicans CBS.562; CBS.562, 48 h, 48 hours",100 µg/mL
same,activity against Phytophtora infestans,Phytophtora infestans,active
same,minimal inhibitory concentration,[8]; 288 hours,150 µg/mL
same,MIC,"[8]; CBS.19646, 72 h, 72 hours",50 µg/mL
same,MIC,"[8]; CBS.19646, 144 h, 144 hours",75 µg/mL
same,MIC,"[8]; CBS.19646, 288 h, 288 hours",75 µg/mL
same,activity against Sclerotinia sclerotiorum,Sclerotinia sclerotiorum,active
same,MIC,[9]; 72 hours,50 µg/mL
same,MIC,[9]; 144 hours,50 µg/mL
same,MIC,[9]; 288 hours,100 µg/mL
same,minimal inhibitory concentration,[10]; 72 hours,75 µg/mL
same,minimal inhibitory concentration,[10]; 288 hours,200 µg/mL
same,MIC,"[10]; DSM.11778, 72 h, 72 hours",100 µg/mL
same,MIC,"[10]; DSM.11778, 144 h, 144 hours",150 µg/mL
same,MIC,"[10]; DSM.11778, 288 h, 288 hours",150 µg/mL
same,minimal inhibitory concentration,[11]; 288 hours,50 µg/mL
same,MIC,"[11]; CCM.F382, 144 h, 144 hours",50 µg/mL
same,MIC,"[11]; CCM.F382, 288 h, 288 hours",75 µg/mL
same,MIC,[12]; 24 h,25 µg/mL
same,MIC,[12]; 48 h,25 µg/mL
same,minimal inhibitory concentration,[13]; 72 hours,75 µg/mL
same,minimal inhibitory concentration,[13]; 144 hours,150 µg/mL
same,minimal inhibitory concentration,[13]; 288 hours,200 µg/mL
same,MIC,"[13]; CBS.24765, 72 h, 72 hours",100 µg/mL
same,MIC,"[13]; CBS.24765, 144 h, 144 hours",200 µg/mL
same,MIC,"[13]; CBS.24765, 288 h, 288 hours",250 µg/mL
same,minimal inhibitory concentration,[14]; 72 hours,2.5 µg/mL
same,MIC,"[14]; CBS.50148, 72 h, 72 hours, read-out: minimal inhibitory concentration",5 µg/mL
same,MIC,"[14]; CBS.50148, 144 h, 144 hours, read-out: minimal inhibitory concentration",10 µg/mL
same,MIC,"[14]; CBS.50148, read-out: Minimal inhibitory concentration inhibiting the growth",2.5 µg/mL
same,MIC,[15]; 72 hours,50 µg/mL
same,MIC,[15]; 144 hours,75 µg/mL
same,MIC,[15]; 288 hours,75 µg/mL
same,minimal inhibitory concentration,[16]; 288 hours,200 µg/mL
same,MIC,"[16]; CBS.11326, 72 h, 72 hours",50 µg/mL
same,MIC,"[16]; CBS.11326, 144 h, 144 hours",150 µg/mL
same,MIC,"[16]; CBS.11326, 288 h, 288 hours",150 µg/mL
same,activity against Venturia,Venturia,active
same,MIC,[17]; 72 hours,50 µg/mL
same,MIC,[17]; 144 hours,100 µg/mL
same,MIC,[17]; 288 hours,100 µg/mL
same,activity against Taphrina deformans,Taphrina deformans,active
same,activity against Verticillium albo-atrum,Verticillium albo-atrum,active
same,minimal inhibitory concentration,[18],100 µg/mL
same,MIC,"[18]; Sporotrichum, CBS.34035, 288 h",50 µg/mL
same,MIC,"[19]; CBS.30338, 72 h, 72 hours",2.5 µg/mL
same,MIC,"[19]; CBS.30338, 144 h, 144 hours",10 µg/mL
same,MIC,"[19]; CBS.30338, 288 h, 288 hours",10 µg/mL
same,activity against Verticillium dahlise,Verticillium dahlise,active
same,minimal inhibitory concentration,[20]; 72 hours,75 µg/mL
same,minimal inhibitory concentration,[20]; 144 hours,150 µg/mL
same,minimal inhibitory concentration,[20]; 288 hours,150 µg/mL
same,MIC,"[20]; CCM.F330, 72 h, 72 hours",150 µg/mL
same,MIC,"[20]; CCM.F330, 144 h, 144 hours",200 µg/mL
same,MIC,"[20]; CCM.F330, 288 h, 288 hours",250 µg/mL
same,activity against Ascochyta pisi,Ascochyta pisi,active
